Results: patent US8709764B2, “Enzymatic demethylation of flavonoids” (Universiteit Gent, priority 2005, dated 2014)

Tests used:
[1] = test system: human fecal cultures; assay: Incubation of X or IX with human fecal cultures A-D for 8 days, conversion products detected by HPLC; type: in vitro ADME; settings: fecal cultures A, B and D, 25 mg/l, 8 days
Method: Fecal slurries of 20% (w/v) fresh fecal samples were prepared by homogenizing the feces with phosphate buffered saline (0.1 M, pH 7) containing 1 g/l sodiumthioglycolate as reducing agent. The particulate material was removed by centrifugation (1 min, 500×g). The supernatant is hereafter called “the culture”.
The capacity of the cultures obtained from fecal samples A, B, C and D (further referred as cultures A-D) to degrade or transform the hop prenylflavonoid IX was tested by incubating the fecal cultures (10% (v/v)) in Brain Heart Infusion broth (with 0.5 g/l cystein-HCl) with 25 mg/l of isoxanthohumol for a period of 8 days under anaerobic conditions. Extracts of the incubations at days 0 and 8 were assayed for bioactive transformation products of IX using a Yeast Estrogenic Screen, according to De Boever et al. (2001) Env. Health Perspectives 109, 691-697, based on Routledge & Sumpter (1996) Environ. Toxicol. Chem. 15, 241-248. In brief, Saccharomyces cerevisiae, was transformed with the human estrogen receptor (ERα) gene, together with expression plasmids containing responsive elements and the lacZ reporter gene (encoding the enzyme β-galactosidase). β-galactosidase activity is quantified at 540 nm by the conversion of the chromogenic substance chlorophenol red-β-D-galactopyranoside into chlorophenol red. The bioassay response is expressed as the absorbance at 540 nm divided by the optical density at 630 nm [(A540/A630)net]. The estrogenic activity of the samples was expressed as percentage equivalence to 10 nM estradiol (E2) which elicited a 100% response in the estrogen receptor bioassay. The bioassays were performed in 96-well plates in which 10 μL of the test compounds were tested and incubated with 240 μL of the genetically modified yeast (optical density of 0.25 at 610 nm). Serial dilutions of the test compounds were made in dimethylsulfoxide, which allowed generating dose-response curves for […]. The data were fitted by a 4 parametric logistic model using the Marquardt-Levenberg algorithm (Sigmaplot 4.0, SPSS Inc., Chicago, Ill., USA) (De Boever et al. (2001) Env. Health Perspectives 109, 691-697).
To further test this transformation, cultures A-D (10% (v/v)) were incubated for 8 days in Brain Heart Infusion broth (with 0.5 g/l cystein-HCl) with either X or IX at a concentration of 25 mg/l under anaerobic conditions and conversion products were detected by HPLC (Table 1). […] However, in culture C almost 40% of 8-PN was recovered, which explains the increase in estrogenic properties of culture C.

[2] = Urinary IX and 8-PN excretion in axenic and Human Flora Associated (HFA) rats; type: in vivo, rat; settings: 2 mg IX/kg body weight daily
Method: An experiment with axenic and Human Flora Associated (HFA) rats was performed to test the capacity of the selected strain of example 2 to activate methylated prenylflavonoids in vivo. A total of 12 axenic rats were used for the study. When the rats were 5 weeks old, 3 HFA rats were associated by oral gavage with a freshly voided, homogenized fecal culture which has prenylflavonoid demethylating activity. These HFA rats were designated PF+ rats.
At the same time, 3 HFA rats were associated by oral gavage with a freshly voided, homogenized fecal culture without prenylflavonoid demethylating activity. These HFA rats were designated PF− rats. The remaining rats were kept under sterile conditions. All rats were kept in separate, closed collective cages prior to the start of the experiment.
After 3 weeks of stabilization of the microbial cultures inside the rat intestine, a first experiment was started. After moving the rats to individual metabolism cages, 2 mg IX/kg body weight was daily administered to each rat for 5 days and each day 24 h-pooled urine was collected. After 3 days, the urinary IX and 8-PN excretion was quantified. […]
Herein, the 6 axenic rats were associated with the selected E. limosum strain of example 2 for 7 days by daily oral gavage with a log 9 bacterial suspension. […] On day 7, the urinary IX and 8-PN excretion was quantified.

[3] = Incubation of IX and 8-PN with Eubacterium limosum for 13 days; type: in vitro ADME; settings: Eubacterium limosum, Eubacterium limosum ATCC 8486 culture; E. limosum, 25 mg/l substrate, 13 days anaerobic; average (stdev) molar percentage
Method: Eubacterium limosum ATCC 8486 and Peptostreptococcus productus ATCC 27340 were obtained from the German Collection of Microorganisms and Cell Cultures (DSMZ, Braunschweig, Germany). E. limosum was incubated for 13 days in Brain Heart Infusion broth (with 0.5 g/l cystein-HCl) with 25 mg/l of IX and 8-PN under anaerobic conditions (Table 2). This strain was able to convert IX into 8-PN. […] This feature is clearly different from the metabolic pathway as observed in liver microsomes wherein 8-PN is extensively further metabolised [Nikolic et al. (2005) J. of Mass Spectrom. 40, 289-299; Nikolic et al. (2004) Drug Metabolism and Disposition 32, 272-279].

[4] = test system: selected strain Eubacterium limosum; assay: Fed batch fermentation of IX with selected Eubacterium limosum strain; type: in vitro ADME; settings: fermentor effluent
Method: A fed batch fermentation experiment was designed to use a selected strain Eubacterium limosum as obtained above, to convert methylated prenylflavonoids in a fermentation setting. Fermentation was performed in a Braun Biostat® M fermentor (2 l vessel), filled with 1.5 L Brain Heart Infusion broth (with 0.5 g/l cystein-HCl). Subsequently, the fermentor was sterilized by autoclaving it for 30 min at 121° C. Before inoculation, the fermentor was made anaerobic by flushing the system for 1 h with nitrogen gas. After this, the fermentor was inoculated with a 2-days old E. limosum culture and 25 mg/L IX was added to the fermentation liquid. The fermentation was performed at 37° C. for 2 weeks, without pH control. From day 1 on, three times/day 200 ml anaerobic Brain Heart Infusion broth (with 0.5 g/l cystein-HCl), containing 25 mg/L IX was dosed to the reactor at 10 ml/min and simultaneously […] fermentor content was removed from the system. A 10 ml sample was taken from the effluent, for chemical analysis. This was done at day 0, 1, 2 and afterwards every 2 days. Data were as % conversion (8-PN/(IX+8-PN)). A conversion of 0% (day 0), 43% (day 1) and 100% (day 2 and following days), of IX into 8-PN was obtained.

In the case of `COc1cc(O)c(CC=C(C)C)c2c1C(=O)C[C@@H](c1ccc(O)cc1)O2` [IX, 5-O-methyl-8-prenylnaringenin], the “Transformation of IX” value [1] is reported as “recalcitrant to transformation”, the “24 h-pooled urinary % 8-PN/(IX + 8-PN) excretion, Mean (Stdev)” value ([2]; PF+ HFA rats) is reported as 55.3 (9.1) % and the “24 h-pooled urinary % 8-PN/(IX + 8-PN) excretion, Mean (Stdev)” value ([2]; PF− HFA rats) is reported as 23.6 (10.4) %. The recovery at 13 days, 25 mg/l [3] was 51.4%, the “% conversion (8-PN/(IX+8-PN))” value ([4]; day 0) was 0% and the “% conversion (8-PN/(IX+8-PN))” value ([4]; day 1) was 43%. The “% conversion (8-PN/(IX+8-PN))” value ([4]; day 2 and following days) was 100%.
